From ChEMBL document CHEMBL1140860, “Synthesis and evaluation of dihydroartemisinin and dihydroartemisitene acetal dimers showing anticancer and antiprotozoal activity” (Bioorg Med Chem, 2009)

Key:
[1] = Cytotoxicity against african green monkey Vero cells after 48 hrs by neutral red assay; format: cell-based; conditions: chlorocebus sabaeus, read-out: TC50
[2] = Selectivity index, ratio of TC50 for african green monkey (Cercopithecus aethiops) Vero cells to IC50 for chloroquine-sensitive Plasmodium falciparum D6; format: toxicity, cell-based
Plasmodium falciparum [3] = assay: Antimalarial activity after 72 hrs against chloroquine-resistant Plasmodium falciparum W2 infected erythrocytes by LDH assay; format: functional, organism-based; conditions: W2, 72 h
[4] = Selectivity index, ratio of TC50 for african green monkey (Cercopithecus aethiops) Vero cells to IC50 for chloroquine-resistant Plasmodium falciparum W2; format: toxicity, cell-based
Plasmodium falciparum [5] = assay: Antimalarial activity after 72 hrs against chloroquine-sensitive Plasmodium falciparum D6 infected in erythrocytes by LDH assay; format: functional, organism-based; conditions: D6, 72 h
Leishmania donovani = assay: Antileishmanial activity against Leishmania donovani promastigotes after 48 hrs by alamar-blue assay; format: functional, organism-based

| Compound | CC50 at 48 h [1] | selectivity ratio [2] | IC50 (Plasmodium falciparum [3]) | selectivity ratio [4] | IC50 (Plasmodium falciparum [5]) | IC50 (Leishmania donovani) | IC90 (Leishmania donovani) |
| --- | --- | --- | --- | --- | --- | --- | --- |
| C[C@H]1[C@H](O[C@H]2O[C@@H]3O[C@@]4(C)CC[C@H]5[C@H](C)CC[C@@H]([C@H]2C)[C@@]35OO4)O[C@@H]2O[C@@]3(C)CC[C@H]4[C@H](C)CC[C@@H]1[C@@]24OO3 | > 864 µM | > 37 | 25.4 µM | > 34 | 23.6 µM | – | – |
| C[C@H]1[C@@H](O[C@H]2O[C@@H]3O[C@@]4(C)CC[C@H]5[C@H](C)CC[C@@H]([C@H]2C)[C@@]35OO4)O[C@@H]2O[C@@]3(C)CC[C@H]4[C@H](C)CC[C@@H]1[C@@]24OO3 | > 864 µM | > 73 | 6.9 µM | > 125 | 11.8 µM | – | – |
| C[C@@H]1[C@H](O)[C@@H](C)/C=C/C=C/C=C/C=C/C=C/C=C/C=C/[C@H](O[C@@H]2O[C@H](C)[C@@H](O)[C@H](N)[C@@H]2O)C[C@@H]2O[C@](O)(C[C@@H](O)C[C@@H](O)[C@H](O)CC[C@@H](O)C[C@@H](O)CC(=O)O[C@H]1C)C[C@H](O)[C@H]2C(=O)O [AMPHOTERICIN B] | – | – | – | – | – | 0.1 µM | 0.2 µM |
| C[C@@H]1CC[C@H]2[C@@H](C)C(=O)O[C@@H]3O[C@@]4(C)CC[C@@H]1[C@]32OO4 [ARTEMISININ] | > 1690 µM | > 170 | – | > 106 | – | – | – |
| N=C(N)c1ccc(OCCCCCOc2ccc(C(=N)N)cc2)cc1 [PENTAMIDINE] | – | – | – | – | – | 3.5 µM | 14.7 µM |
